{"source": "patent US20260284064A1", "about": "“PI3K INHIBITORS FOR THE TREATMENT OF CANCER” (priority 2023, published 2026)", "key": {"PI3Kβ (p110β)": {"system": "PI3Kβ (p110β)", "conditions": "cited from earlier work"}, "[1]": {"system": "KP4 cells comprising a PIK3CA LOF mutation", "assay": "cell viability assay in isogenic KP4 lines (PIK3CA LOF, wild type, PIK3CB knocked out)", "type": "cell-based", "description": "To determine the effects of PI3K inhibitors in tumor cells harboring PIKCA mutations, cell lines with engineered PIK3CA were created and administered multiple PI3K inhibitors. In particular, an engineered line comprising a PIK3CA loss of function (LOF) mutant was compared to its parental line (PIK3CA wild type), and a cell line with PIK3CB knocked out. Various PI3K inhibitors were administered to each cell line.\nTo create cells with a loss of function PIK3CA mutation (PIK3CA-LOF mutant), the PIK3CA gene was knocked out in KP4 cells using CRISPR genome editing (kits sold by Synthego). The parental line of KP4 cells comprising PIK3CA wild type was used as a comparator, and KP4 cells with PIK3CB knocked out were used as a control. A cell viability assay was performed by treating the three isogenic lines with various concentrations of three different PI3K inhibitors: GSK-2636771, a selective PI3K-beta (PIK3CB) inhibitor, AZD-8186, a PI3K-beta/delta (PIK3CB, PIK3CD) inhibitor, and seletalisib, a selective PI3K-delta (PIK3CD) inhibitor."}, "[2]": {"system": "PIK3CA-mutant line BT474c", "conditions": "read-out: potency in BT474c; cited from earlier work"}, "BT474c cells": {"system": "BT474c cells", "conditions": "read-out: IC50, cell growth; cited from earlier work"}, "HCC70": {"system": "HCC70", "conditions": "cited from earlier work"}, "442 other kinases": {"system": "442 other kinases", "set-up": "dose or concentration left out as unconfirmed", "conditions": "cited from earlier work"}, "PI3Kδ (p110δ)": {"system": "PI3Kδ (p110δ)", "conditions": "cited from earlier work"}, "HID28": {"system": "HID28", "conditions": "HID28 explant model; cited from earlier work"}, "JEKO cells": {"system": "JEKO cells", "conditions": "IgM stimulated JEKO cells; read-out: IC50, cell growth; cited from earlier work"}, "PI3Kγ (p110γ)": {"system": "PI3Kγ (p110γ)", "conditions": "cited from earlier work"}, "[3]": {"system": "pAKT (Ser473) in PTEN-null MDA-MB-468 cells", "conditions": "read-out: IC50, PI3Kβ-dependent activation of pAKT (Ser473); cited from earlier work"}, "[4]": {"system": "74 protein and lipid kinases", "conditions": "cited from earlier work"}, "[5]": {"system": "pAKT (Ser473) in JEKO cells", "conditions": "read-out: IC50, IgM-stimulated phosphorylation of pAKT (Ser473); cited from earlier work"}, "[6]": {"conditions": "cited from earlier work"}, "PI3Kα (p110α)": {"system": "PI3Kα (p110α)", "conditions": "cited from earlier work"}, "MDA-MB-468 cells": {"system": "MDA-MB-468 cells", "conditions": "read-out: GI50, proliferation; cited from earlier work"}, "MDA-MB-468": {"system": "MDA-MB-468", "conditions": "end of study, cited from earlier work"}, "PC3": {"system": "PC3", "conditions": "cited from earlier work"}, "[7]": {"system": "PDX models with predicted LOF mutations in PIK3CA", "assay": "Example 7 patient derived xenograft (PDX) study", "type": "in vivo, NSG mice", "conditions": "10 mg/kg or 3 mg/kg once daily by oral gavage"}, "[8]": {"system": "PBMCs or other cell types", "conditions": "cited from earlier work"}, "[9]": {"conditions": "cited from earlier work", "remark": "listed apart in the source"}, "[10]": {"conditions": "read-out: IC50 for PI3Kβ (p110β)"}, "[11]": {"conditions": "compared to KP4 PIK3CA wild type, FIG. 3"}, "[12]": {"conditions": "compared to KP4 PIK3CA wild type or PIK3CB LOF, FIG. 2"}}, "note": "Values joined by “and” are separate entries in the source; they are usually repeats but may differ in a detail not shown here. Equal values may be shown once. Read-outs that look alike come from different tables or passages of the source.", "data": [{"smiles": "Cc1cc([C@@H](C)Nc2ccccc2C(=O)O)c2nc(N3CCOCC3)cc(=O)n2c1", "note": "[AZD-6482]", "values": [{"measurement": "IC50", "setting": "PI3Kβ (p110β); [10]", "result": "[…]"}, {"measurement": "cancer cell inhibition in KP4 PIK3CA LOF cells", "setting": "[1]; [11]", "result": "favorable increases in cancer cell inhibition"}]}, {"smiles": "C[C@@H](Nc1cc(F)cc(F)c1)c1cc(C(=O)N(C)C)cc2c(=O)cc(N3CCOCC3)oc12", "note": "[AZD-8186, (R)-8-(1-(3,5-Difluorophenylamino)ethyl)-N,N-dimethyl-2-morpholino-4-oxo-4H-chromene-6-carboxamide]", "values": [{"measurement": "IC50", "setting": "[2]", "result": 752, "unit": "nM"}, {"measurement": "IC50", "setting": "BT474c cells", "result": 1980, "unit": "nM"}, {"measurement": "tumor growth inhibition", "setting": "HCC70; HCC70, 25 mg/kg twice a day", "result": 62, "unit": "%"}, {"measurement": "tumor growth inhibition", "setting": "HCC70; HCC70, 50 mg/kg twice a day", "result": 85, "unit": "%"}, {"measurement": "binding to 442 other kinases in KinomeScan screen", "setting": "442 other kinases", "result": "no significant binding"}, {"measurement": "IC50", "setting": "PI3Kδ (p110δ)", "result": 12, "unit": "nM"}, {"measurement": "IC50", "setting": "PI3Kβ (p110β); [10]", "result": 4, "unit": "nM"}, {"measurement": "growth inhibition", "setting": "HID28", "result": 79, "unit": "%"}, {"measurement": "IC50", "setting": "JEKO cells", "result": 228, "unit": "nM"}, {"measurement": "IC50", "setting": "PI3Kγ (p110γ)", "result": 675, "unit": "nM"}, {"measurement": "IC50", "setting": "[3]", "result": 3, "unit": "nM"}, {"measurement": "selectivity for PI3Kβ and δ versus 74 protein and lipid kinases", "setting": "[4]", "result": "> 100", "unit": "fold"}, {"measurement": "IC50", "setting": "[5]", "result": 17, "unit": "nM"}, {"measurement": "exposure", "setting": "[6]; animals bearing PC3 tumors, co-dosed with Cyt P450 inhibitor ABT", "result": "significantly increased exposure"}, {"measurement": "half-life", "setting": "[6]; mouse, in vivo", "result": "short half-life"}, {"measurement": "IC50", "setting": "PI3Kα (p110α)", "result": 35, "unit": "nM"}, {"measurement": "GI50", "setting": "MDA-MB-468 cells", "result": 65, "unit": "nM"}, {"measurement": "tumor growth inhibition", "setting": "MDA-MB-468; MDA-MB-468, 25 mg/kg twice a day", "result": 47, "unit": "%"}, {"measurement": "tumor growth inhibition", "setting": "MDA-MB-468; MDA-MB-468, 50 mg/kg twice a day", "result": 76, "unit": "%"}, {"measurement": "cancer cell inhibition in KP4 PIK3CA LOF cells", "setting": "[1]; [12]", "result": "favorable increases in cancer cell inhibition"}, {"measurement": "maximal growth inhibition", "setting": "PC3; PC3, 25 mg/kg twice a day", "result": 59, "unit": "%"}, {"measurement": "reduction in tumor growth", "setting": "PC3; PC3, 30 mg/kg AZD-8186 co-dosed with Cyt P450 inhibitor ABT", "result": 86, "unit": "%"}, {"measurement": "maximal growth inhibition", "setting": "PC3; PC3, 50 mg/kg twice a day", "result": 64, "unit": "%"}]}, {"smiles": "C[C@H](Nc1ncnc2[nH]cnc12)c1nc2ccc(F)cc2c(=O)n1-c1ccccc1", "note": "[Acalisib]", "values": [{"measurement": "IC50", "setting": "PI3Kδ (p110δ)", "result": "12.7 nM and 14 nM"}, {"measurement": "selectivity over the other class 1 PI3K enzymes", "setting": "PI3Kδ (p110δ)", "result": "greater than 100 fold"}, {"measurement": "IC50", "setting": "PI3Kβ (p110β); unit inferred, read-out: IC50 against PI3Kβ", "result": 3380, "unit": "nM"}, {"measurement": "cancer cell inhibition in KP4 PIK3CA LOF cells", "setting": "[1]; [11]", "result": "reduced levels of cancer cell inhibition"}]}, {"smiles": "Cc1nc(NC(=O)N2CCC[C@H]2C(N)=O)sc1-c1ccnc(C(C)(C)C(F)(F)F)c1", "note": "[Alpelisib]", "values": [{"measurement": "effect on PI3Kδ", "setting": "PI3Kδ (p110δ); cell-free assay", "result": "minimal effect"}, {"measurement": "effect on PI3Kβ", "setting": "PI3Kβ (p110β); cell-free assay", "result": "minimal effect"}, {"measurement": "effect on PI3Kγ", "setting": "PI3Kγ (p110γ); cell-free assay", "result": "minimal effect"}, {"measurement": "IC50", "setting": "PI3Kα (p110α); cell-free assay", "result": "[…]"}]}, {"smiles": "COc1c(OCCCN2CCOCC2)ccc2c1N=C(NC(=O)c1cnc(N)nc1)N1CCN=C21", "note": "[Copanlisib]", "values": [{"measurement": "IC50", "setting": "PI3Kδ (p110δ); cell-free assays", "result": "[…]"}, {"measurement": "IC50", "setting": "PI3Kβ (p110β); cell-free assays, read-out: IC50 for PI3Kβ", "result": "[…]"}, {"measurement": "IC50", "setting": "PI3Kγ (p110γ); cell-free assays", "result": "[…]"}, {"measurement": "IC50", "setting": "PI3Kα (p110α); cell-free assay", "result": "[…]"}]}, {"smiles": "C[C@H](Nc1ncnc2[nH]cnc12)c1cc2cccc(Cl)c2c(=O)n1-c1ccccc1", "note": "[Duvelisib]", "values": [{"measurement": "IC50", "setting": "PI3Kδ (p110δ); cell-free assays", "result": "[…]"}, {"measurement": "IC50", "setting": "PI3Kγ (p110γ); cell-free assays", "result": "[…]"}]}, {"smiles": "Cc1c(Cn2c(C)nc3c(C(=O)O)cc(N4CCOCC4)cc32)cccc1C(F)(F)F", "note": "[GSK-2636771]", "values": [{"measurement": "selectivity for p110β over p110δ", "setting": "PI3Kδ (p110δ)", "result": 10, "unit": "fold"}, {"measurement": "IC50", "setting": "PI3Kβ (p110β); [10]", "result": 5.2, "unit": "nM"}, {"measurement": "survival outcomes", "setting": "[7]", "result": "significantly improved survival outcomes"}, {"measurement": "tumor growth", "setting": "[7]", "result": "significantly reduced tumor growth"}, {"measurement": "selectivity for p110β over p110γ", "setting": "PI3Kγ (p110γ)", "result": 900, "unit": "fold"}, {"measurement": "selectivity for p110β over p110α", "setting": "PI3Kα (p110α)", "result": 900, "unit": "fold"}, {"measurement": "cancer cell inhibition in KP4 PIK3CA LOF cells", "setting": "[1]; [12]", "result": "favorable increases in cancer cell inhibition"}]}, {"smiles": "CC[C@H](Nc1ncnc2[nH]cnc12)c1nc2cccc(F)c2c(=O)n1-c1ccccc1", "note": "[Idelalisib]", "values": [{"measurement": "IC50", "setting": "PI3Kδ (p110δ); cell-free assays", "result": 2.5, "unit": "nM"}]}, {"smiles": "C[C@H]1Cc2ccccc2N1C(=O)Cc1nc(=O)cc(N2CCOCC2)[nH]1", "note": "[SAR-260301]", "values": [{"measurement": "IC50", "setting": "PI3Kδ (p110δ)", "result": 469, "unit": "nM"}, {"measurement": "IC50", "setting": "PI3Kβ (p110β); [10]", "result": 23, "unit": "nM"}, {"measurement": "IC50", "setting": "PI3Kγ (p110γ)", "result": 10000, "unit": "nM"}, {"measurement": "IC50", "setting": "PI3Kα (p110α)", "result": 1540, "unit": "nM"}, {"measurement": "cancer cell inhibition in KP4 PIK3CA LOF cells", "setting": "[1]; [11]", "result": "favorable increases in cancer cell inhibition"}]}, {"smiles": "[O-][n+]1cccc(-c2nc3c(Cl)cccc3cc2[C@@H](Nc2ncnc3cccnc23)C(F)(F)F)c1", "note": "[Seletalisib]", "values": [{"measurement": "cytotoxicity", "setting": "[8]", "result": "No indications of cytotoxicity"}, {"measurement": "IC50", "setting": "PI3Kδ (p110δ)", "result": 12, "unit": "nM"}, {"measurement": "cancer cell inhibition in KP4 PIK3CA LOF cells", "setting": "[1]; [12]", "result": "no improvement in cancer cell inhibition"}]}, {"smiles": "Cc1cc(C(C)Nc2ccccc2)c2nc(N3CCOCC3)cc(=O)n2c1", "note": "(centres unmarked) [TGX-221]", "values": [{"measurement": "selectivity over the other PI3K enzymes (e.g., PI3Kα)", "setting": "PI3Kβ (p110β)", "result": "[…]"}, {"measurement": "IC50", "setting": "PI3Kβ (p110β); [10]", "result": "[…]"}, {"measurement": "cell permeability", "setting": "[9]", "result": "high cell permeability"}, {"measurement": "cancer cell inhibition in KP4 PIK3CA LOF cells", "setting": "[1]; [11]", "result": "favorable increase in cancer cell inhibition"}]}]}
